Measured values published in US10190138B2, “Methods using short chain peracids to replace antibiotics for controlling fermentation process infection” (Ecolab USA Inc., priority 2012, dated 2019).

What was measured:
[1] = pH 4
From the text: The issue of low solubility when using long chain peracids has been addressed by increasing the pH to above 7. […] Further, bleaching efficacy decreases proportionally with every pH unit increase over about 7.

Lactobacilli = details: 2 hours of contact time in the absence of yeast; cited from earlier work
L. fermentum = experiment: MRS broth fermentation, CO2 respirometry; format: cell-based, Lactobacillus fermentum; details: 1 ppm, 1×10^5 cell/mL start
Description: Solutions of Vortexx and Octave were provided by the Ecolab, Inc. The antibiotic Virginiamycin was purchased from SantaCruz Biotechnology. Ethanol Red yeast (Fermentis), and Lactobacillus fermentum were revived from 10% glycerol stocks maintained at […]. Yeast was grown at 30° C. under aerobic conditions in either liquid YPD medium or on YPD agar prior to use in propagations and fermentations. Bacteria were grown at 30° C. under anaerobic conditions in either liquid MRS broth, and or on MRS agar plates. Liquefied corn mash and gluco-amylase enzyme was provided by Illinois River Energy (Rochelle, Ill.).
Fermentations were conducted in Wheaton glass bottles placed in a 30° C. recirculating water bath atop an 8-position magnetic stir-plate. Each bottle was sealed with a rubber septum cap and connected through ⅛″ tubing to a respirometer instrument (Challenger Instruments), which quantified the off-gassing of CO2 during fermentation.
MRS broth fermentations were conducted in 0.125 L Wheaton bottles, each containing the 100 mL of MRS broth and 4 mL propagated bacteria. […]
MRS broth, which contains only 0.6% solids compared to typical liquefied corn mash at 30% solids, represents a relatively simple test of the effectiveness of the peracid chemistries for controlling Lactobacillus growth. […] All bottles were placed monitored via respirometry under identical conditions. […]

**Q.** With `O=C(CCCCCCCCCCS(=O)(=O)O)OO` [11-sulfoundecane peroxoic acid] as the compound, how does the solubility [1] read?
**A.** The solubility was “about 1.3%”.

**Q.** Which “hydrogen peroxide required for effective bacterial control” value (Lactobacilli) does the source give for `OO` [hydrogen peroxide] here?
**A.** The value was 600 ppm.

**Q.** Which results are given for Virginiamycin?
**A.** CO2 production (L. fermentum): failed to produce any CO2; bacterial growth (L. fermentum): no bacterial growth
